In PubChem BioAssay AID248 (DTP/NCI, 2004):
Inconclusive results and toxic doses are left out. No stated cut-off is given here; in the data, active means T/C of 150% or more; inactive means T/C below 125%.

Tested on: L1210 leukemia ip in BDF1 mice, survival T/C
Experiment: NCI In Vivo Anticancer Drug Screen. Data for tumor model L1210 Leukemia (intraperitoneal) in B6D2F1 (BDF1) mice
Conditions: endpoint: mean survival time, higher = longer survival
Procedure, shortened: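 Survival endpoint. Drug-treated group vs vehicle group, expressed as T divided by C. Tumor passaged by transplantation.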

Measured: T/C

COc1cccc(CNc2cccc(Cl)c2Cl)c1OC
inactive: dose: 100.0 mg/kg/injection, schedule: Q01DX009 (ip), vehicle: saline with Tween-80 103 % of control | dose: 100.0 mg/kg/injection, schedule: Q04DX003 (ip), vehicle: other 102 % of control | dose: 200.0 mg/kg/injection, schedule: Q01DX009 (ip), vehicle: saline with Tween-80 94 % of control | dose: 200.0 mg/kg/injection, schedule: Q04DX003 (ip), vehicle: other 96 % of control | dose: 400.0 mg/kg/injection, schedule: Q01DX009 (ip), vehicle: saline with Tween-80 109 % of control | dose: 400.0 mg/kg/injection, schedule: Q04DX003 (ip), vehicle: other 113 % of control

COc1cc2c(cc1OCc1ccccc1)C=CN(C(=O)c1ccccc1)C2C#N (stereo not drawn)
inactive: dose: 25.0 mg/kg/injection, schedule: Q01DX009 (ip), vehicle: saline 100 % of control | dose: 50.0 mg/kg/injection, schedule: Q01DX009 (ip), vehicle: saline 94 % of control | dose: 100.0 mg/kg/injection, schedule: Q01DX009 (ip), vehicle: saline 94 % of control | dose: 200.0 mg/kg/injection, schedule: Q01DX009 (ip), vehicle: saline 93 % of control | dose: 400.0 mg/kg/injection, schedule: Q01DX009 (ip), vehicle: saline 98 % of control

CNC(=O)Oc1cccc(N(C)C)c1
inactive: dose: 9.5 mg/kg/injection, schedule: Q01DX001 (ip), vehicle: other 100 % of control | dose: 19.0 mg/kg/injection, schedule: Q01DX001 (ip), vehicle: other 98 % of control
